In PubChem BioAssay (NCI):
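Five concentrations, 48 hours, 96-well plates. GI50 marks 50% less growth. At the TGI there is no net growth.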

Experiments:
Assay in all cases: DTP human tumour cell line panel, 48 h
SW-620 colon = tested on: SW-620 colon
KM12 colon = tested on: KM12 colon
SF-539 CNS = tested on: SF-539 CNS
HCC-2998 colon = tested on: HCC-2998 colon
DU-145 prostate = tested on: DU-145 prostate
COLO 205 colon = tested on: COLO 205 colon
A549 NSCLC = tested on: A549 NSCLC
K-562 leukemia = tested on: K-562 leukemia
PC-3 prostate = tested on: PC-3 prostate
RPMI-8226 leukemia = tested on: RPMI-8226 leukemia
MCF7 breast = tested on: MCF7 breast
NCI-H226 lung = tested on: NCI-H226 lung
OVCAR-3 ovarian = tested on: OVCAR-3 ovarian
CAKI-1 renal = tested on: CAKI-1 renal
M14 melanoma = tested on: M14 melanoma
HOP-62 NSCLC = tested on: HOP-62 NSCLC
EKVX NSCLC = tested on: EKVX NSCLC
HT29 colon = tested on: HT29 colon
MDA-MB-435 = tested on: MDA-MB-435
UO-31 renal = tested on: UO-31 renal
HCT-15 colon = tested on: HCT-15 colon
OVCAR-4 ovarian = tested on: OVCAR-4 ovarian
HS 578T breast = tested on: HS 578T breast
UACC-62 melanoma = tested on: UACC-62 melanoma
CCRF-CEM leukemia = tested on: CCRF-CEM leukemia
SF-268 CNS = tested on: SF-268 CNS
MOLT-4 leukemia = tested on: MOLT-4 leukemia
IGROV1 ovarian = tested on: IGROV1 ovarian
SN12C renal = tested on: SN12C renal
NCI-H522 lung = tested on: NCI-H522 lung
RXF 393 renal = tested on: RXF 393 renal
MALME-3M melanoma = tested on: MALME-3M melanoma
SK-OV-3 ovarian = tested on: SK-OV-3 ovarian
SNB-75 CNS = tested on: SNB-75 CNS
SF-295 CNS = tested on: SF-295 CNS
MDA-MB-231 breast = tested on: MDA-MB-231 breast
SK-MEL-28 melanoma = tested on: SK-MEL-28 melanoma
ACHN renal = tested on: ACHN renal
SR leukemia = tested on: SR leukemia
OVCAR-5 ovarian = tested on: OVCAR-5 ovarian
NCI-H23 lung = tested on: NCI-H23 lung
786-0 renal = tested on: 786-0 renal
BT-549 breast = tested on: BT-549 breast
SK-MEL-5 melanoma = tested on: SK-MEL-5 melanoma
A498 renal = tested on: A498 renal
HCT-116 colon = tested on: HCT-116 colon
U251 CNS = tested on: U251 CNS
TK-10 renal = tested on: TK-10 renal
UACC-257 melanoma = tested on: UACC-257 melanoma
LOX IMVI melanoma = tested on: LOX IMVI melanoma
HL-60(TB) leukemia = tested on: HL-60(TB) leukemia
HOP-92 NSCLC = tested on: HOP-92 NSCLC
SNB-19 CNS = tested on: SNB-19 CNS
NCI-H460 lung = tested on: NCI-H460 lung

SMILES: C[n+]1c2ccccc2c(Nc2ccc(N3CCCCC3)cc2)c2[nH]c3ccccc3c21
- GI50 (SW-620 colon): 184 nM
- TGI (SW-620 colon): 726 nM
- GI50 (KM12 colon): 281 nM
- TGI (KM12 colon): 958 nM
- GI50 (SF-539 CNS): 617 nM
- TGI (SF-539 CNS): 1900 nM
- GI50 (HCC-2998 colon): 185 nM
- TGI (HCC-2998 colon): 619 nM
- GI50 (DU-145 prostate): 272 nM
- TGI (DU-145 prostate): 802 nM
- GI50 (COLO 205 colon): 140 nM
- TGI (COLO 205 colon): 344 nM
- GI50 (A549 NSCLC): 166 nM
- TGI (A549 NSCLC): 549 nM
- GI50 (K-562 leukemia): 155 nM
- TGI (K-562 leukemia): 353 nM
- GI50 (PC-3 prostate): 154 nM
- TGI (PC-3 prostate): 416 nM
- GI50 (RPMI-8226 leukemia): 81 nM
- TGI (RPMI-8226 leukemia): 262 nM
- GI50 (MCF7 breast): 152 nM
- TGI (MCF7 breast): 524 nM
- GI50 (NCI-H226 lung): 324 nM
- TGI (NCI-H226 lung): 1800 nM
- GI50 (OVCAR-3 ovarian): 185 nM
- TGI (OVCAR-3 ovarian): 368 nM
- GI50 (CAKI-1 renal): 114 nM
- TGI (CAKI-1 renal): 1060 nM
- GI50 (M14 melanoma): 346 nM
- TGI (M14 melanoma): 1470 nM
- GI50 (HOP-62 NSCLC): 456 nM
- TGI (HOP-62 NSCLC): 1810 nM
- GI50 (EKVX NSCLC): 459 nM
- TGI (EKVX NSCLC): 1930 nM
- GI50 (HT29 colon): 191 nM
- TGI (HT29 colon): 656 nM
- GI50 (MDA-MB-435): 442 nM
- TGI (MDA-MB-435): 1650 nM
- GI50 (UO-31 renal): 144 nM
- TGI (UO-31 renal): 833 nM
- GI50 (HCT-15 colon): 154 nM
- TGI (HCT-15 colon): 324 nM
- GI50 (OVCAR-4 ovarian): 326 nM
- TGI (OVCAR-4 ovarian): 1230 nM
- GI50 (HS 578T breast): 231 nM
- TGI (HS 578T breast): 705 nM
- GI50 (UACC-62 melanoma): 194 nM
- TGI (UACC-62 melanoma): 861 nM
- GI50 (CCRF-CEM leukemia): 83.2 nM
- TGI (CCRF-CEM leukemia): 312 nM
- GI50 (SF-268 CNS): 460 nM
- TGI (SF-268 CNS): 1620 nM
- GI50 (MOLT-4 leukemia): 53.6 nM
- TGI (MOLT-4 leukemia): 1180 nM
- GI50 (IGROV1 ovarian): 229 nM
- TGI (IGROV1 ovarian): 1180 nM
- GI50 (SN12C renal): 212 nM
- TGI (SN12C renal): 1240 nM
- TGI (NCI-H522 lung): 90.8 nM
- GI50 (RXF 393 renal): 174 nM
- TGI (RXF 393 renal): 347 nM
- GI50 (MALME-3M melanoma): 340 nM
- TGI (MALME-3M melanoma): 1530 nM
- GI50 (SK-OV-3 ovarian): 515 nM
- TGI (SK-OV-3 ovarian): 1850 nM
- GI50 (SNB-75 CNS): 522 nM
- TGI (SNB-75 CNS): 1910 nM
- GI50 (SF-295 CNS): 379 nM
- TGI (SF-295 CNS): 1550 nM
- GI50 (MDA-MB-231 breast): 327 nM
- TGI (MDA-MB-231 breast): 1700 nM
- GI50 (SK-MEL-28 melanoma): 418 nM
- TGI (SK-MEL-28 melanoma): 1360 nM
- GI50 (ACHN renal): 223 nM
- TGI (ACHN renal): 1010 nM
- GI50 (SR leukemia): 3790 nM
- TGI (SR leukemia): > 100000 nM
- GI50 (OVCAR-5 ovarian): 658 nM
- TGI (OVCAR-5 ovarian): 2090 nM
- GI50 (NCI-H23 lung): 349 nM
- TGI (NCI-H23 lung): 1680 nM
- GI50 (786-0 renal): 456 nM
- TGI (786-0 renal): 1690 nM
- GI50 (BT-549 breast): 1160 nM
- TGI (BT-549 breast): 2450 nM
- GI50 (SK-MEL-5 melanoma): 333 nM
- TGI (SK-MEL-5 melanoma): 1460 nM
- GI50 (A498 renal): 234 nM
- TGI (A498 renal): 843 nM
- GI50 (HCT-116 colon): 132 nM
- TGI (HCT-116 colon): 361 nM
- GI50 (U251 CNS): 205 nM
- TGI (U251 CNS): 670 nM
- GI50 (TK-10 renal): 1230 nM
- TGI (TK-10 renal): 2600 nM
- GI50 (UACC-257 melanoma): 417 nM
- TGI (UACC-257 melanoma): 1070 nM
- GI50 (LOX IMVI melanoma): 144 nM
- TGI (LOX IMVI melanoma): 340 nM
- GI50 (HL-60(TB) leukemia): 28.2 nM
- TGI (HL-60(TB) leukemia): 192 nM
- GI50 (HOP-92 NSCLC): 264 nM
- TGI (HOP-92 NSCLC): 1200 nM
- GI50 (SNB-19 CNS): 427 nM
- TGI (SNB-19 CNS): 1760 nM
- GI50 (NCI-H460 lung): 152 nM
- TGI (NCI-H460 lung): 480 nM

SMILES: Cc1nc2cc(Nc3nc(N4CCCCC4)nc(N4CCOCC4)n3)ccc2n1Cc1ccccc1
- GI50 (SW-620 colon): 3190 nM
- TGI (SW-620 colon): > 100000 nM
- GI50 (SF-539 CNS): > 100000 nM
- TGI (SF-539 CNS): > 100000 nM
- GI50 (HCC-2998 colon): 3980 nM
- TGI (HCC-2998 colon): > 100000 nM
- GI50 (DU-145 prostate): 3480 nM
- TGI (DU-145 prostate): > 100000 nM
- GI50 (K-562 leukemia): 6710 nM
- TGI (K-562 leukemia): > 100000 nM
- GI50 (MCF7 breast): 3280 nM
- TGI (MCF7 breast): > 100000 nM
- GI50 (NCI-H226 lung): 4060 nM
- TGI (NCI-H226 lung): > 100000 nM
- GI50 (M14 melanoma): 3920 nM
- TGI (M14 melanoma): > 100000 nM
- GI50 (MDA-MB-435): 3410 nM
- TGI (MDA-MB-435): > 100000 nM
- GI50 (HCT-15 colon): 2840 nM
- TGI (HCT-15 colon): > 100000 nM
- GI50 (HS 578T breast): 2710 nM
- TGI (HS 578T breast): > 100000 nM
- GI50 (MOLT-4 leukemia): 3600 nM
- TGI (MOLT-4 leukemia): > 100000 nM
- GI50 (IGROV1 ovarian): 3760 nM
- TGI (IGROV1 ovarian): > 100000 nM
- GI50 (SR leukemia): 3570 nM
- TGI (SR leukemia): > 100000 nM
- GI50 (786-0 renal): 1780 nM
- TGI (786-0 renal): 3230 nM
- GI50 (BT-549 breast): 2510 nM
- TGI (BT-549 breast): 7100 nM
- GI50 (UACC-257 melanoma): 3150 nM
- TGI (UACC-257 melanoma): > 100000 nM
- GI50 (HL-60(TB) leukemia): 2160 nM
- TGI (HL-60(TB) leukemia): 5490 nM
